{"source": "ChEMBL document CHEMBL3046502", "about": "“In vitro antimicrobial and antitubercular studies of novel 6-substituted (pyrrolidin-1-yl)-2(1H)-pyridinones” (2012)", "format_in_all_cases": "functional", "key": {"[1]": {"system": "Candida albicans", "assay": "Antimicrobial activity against Candida albicans MTCC 227"}, "[2]": {"system": "Escherichia coli", "assay": "Antimicrobial activity against Escherichia coli MTCC 442 by broth microdilution method"}, "[3]": {"system": "Aspergillus clavatus", "assay": "Antimicrobial activity against Aspergillus clavatus MTCC 1323"}, "[4]": {"system": "Streptococcus pyogenes", "assay": "Antimicrobial activity against Streptococcus pyogenes MTCC 443 by broth microdilution method"}, "[5]": {"system": "Mycobacterium tuberculosis", "assay": "Antimicrobial activity against Mycobacterium tuberculosis H37Rv", "conditions": "for MIC: Mycobacterium tuberculosis, H37Rv"}, "[6]": {"system": "Aspergillus niger", "assay": "Antimicrobial activity against Aspergillus niger MTCC 282"}, "[7]": {"system": "Pseudomonas aeruginosa", "assay": "Antimicrobial activity against Pseudomonas aeruginosa MTCC 2488 by broth microdilution method"}, "[8]": {"system": "Staphylococcus aureus", "assay": "Antimicrobial activity against Staphylococcus aureus MTCC 96 by broth microdilution method"}}}
{"compound": "COc1ccc(-c2cc(N3CCCC3)n(-c3cccc(Cl)c3)c(=O)c2/N=N/c2ccc(Cl)c(Cl)c2)cc1", "values": [{"measurement": "MIC", "setting": "[1]", "value": 100, "unit": "µg/mL"}, {"measurement": "MIC", "setting": "[2]", "value": 62.5, "unit": "µg/mL"}, {"measurement": "MIC", "setting": "[3]", "value": 1000, "unit": "µg/mL"}, {"measurement": "MIC", "setting": "[4]", "value": 500, "unit": "µg/mL"}, {"measurement": "inhibition (INH)", "setting": "[5]", "value": 99, "unit": "%"}, {"measurement": "MIC", "setting": "[5]", "value": 250, "unit": "µg/mL"}, {"measurement": "MIC", "setting": "[6]", "value": 500, "unit": "µg/mL"}, {"measurement": "MIC", "setting": "[7]", "value": 200, "unit": "µg/mL"}, {"measurement": "MIC", "setting": "[8]", "value": 200, "unit": "µg/mL"}]}
{"compound": "COc1ccc(-c2cc(N3CCCC3)n(-c3cccc(Cl)c3)c(=O)c2)cc1", "values": [{"measurement": "MIC", "setting": "[1]", "value": 1000, "unit": "µg/mL"}, {"measurement": "MIC", "setting": "[2]", "value": 250, "unit": "µg/mL"}, {"measurement": "MIC", "setting": "[3]", "value": 1000, "unit": "µg/mL"}, {"measurement": "MIC", "setting": "[4]", "value": 500, "unit": "µg/mL"}, {"measurement": "inhibition (INH)", "setting": "[5]", "value": 99, "unit": "%"}, {"measurement": "MIC", "setting": "[5]", "value": 500, "unit": "µg/mL"}, {"measurement": "MIC", "setting": "[6]", "value": 1000, "unit": "µg/mL"}, {"measurement": "MIC", "setting": "[7]", "value": 500, "unit": "µg/mL"}, {"measurement": "MIC", "setting": "[8]", "value": 500, "unit": "µg/mL"}]}
